Results taken from patent US20230382916A1, “HETEROARYL HETEROCYCLIC COMPOUNDS AND USES THEREOF” (HUTCHISON MEDIPHARMA LIMITED, priority 2020, published 2023).

How the values were obtained:
[1] = target: BTK recombinant protein (Homo sapiens (Human), UniProt Q06187); experiment: Determination of biochemical BTK (Z'-LYTE kinase assay); settings: 32 μM ATP
From the text: BTK recombinant protein: Invitrogen, Cat #PV3363;
Z′-LYTE® kinase test kit-tyrosine 1 peptide: Invitrogen, Cat #PV3190;
Z′-LYTE® biochemical assay employs a fluorescence resonance energy transfer (FRET)-based, coupled-enzyme format and is based on the differential sensitivity of phosphorylated and non-phosphorylated peptides to proteolytic cleavage. Both ends of the short peptide substrate are labeled with two fluorescent groups to form a FRET paired combination. In the primary reaction (the Kinase Reaction), the kinase transfers the γ-phosphate of ATP to a single […] residue on the short peptide substrate. In the secondary reaction (the development reaction), the non-phosphorylated short peptides were recognized and cleaved by a site-specific protease (the development reagent). Phosphorylated short peptides can resist such cleavage. Cleavage of short peptides can disrupt the donor (such as coumarin) and receptor fluorophores (fluorescein) on the short peptides, while the phosphorylated short peptides can maintain FRET. The calculation method of the ratio is as follows, and the ratio of the respective emission signals generated by the donor fluorophores emitted (after excitation at 400 nm) to the receptors is calculated. Emission signal ratio=emitted light by coumarin (445 nm)/emitted light by fluorescein (520 nm). If the FRET short peptide is phosphorylated (such as no kinase inhibitor), the emitted light ratio will remain in a lower level. If the FRET short peptide is non-phosphorylated (such as kinase inhibitor), the emitted light ratio will be in a higher level. In this way, the inhibitory effects of different compound inhibitors on BTK kinase activity would be distinguished.
The experiment was carried out according to the instructions of the Z′-LYTE® kinase test kit-tyrosine 1 peptide. Reagent preparation: 1.33× kinase buffer: 5× kinase buffer was diluted with water to 1.33× kinase buffer; an enzyme solution: the kinase was dissolved in 1.33× kinase buffer with the final working concentration being 3.32 nM; a short peptide solution: a short peptide stock solution (1 mM dissolved in DMSO) was dissolved in 1.33× kinase buffer with the final working concentration being 2 μM; Z′-LYTE Tyr01 phosphorylated short peptide solution, 0.6 μl of stock solution (1 mM dissolved in DMSO) was dissolved in 149.4 μl of 1.33× kinase buffer; an ATP solution: an ATP stock solution (10 mM aqueous solution) was dissolved in 1.33× kinase buffer with the final working concentration being 32 μM; a color-developing solution: color-developing solution B was dissolved in color-developing buffer with the final working concentration being 1× color-developing solution; 4× compound preparation: the compound was diluted in 3-fold gradient concentration to finally obtain 4% DMSO aqueous solution containing different concentrations of the compound, with the final working concentration being 3000, 1000, 333.33, 111.11, 37.04, 12.35, 4.12, 1.37 nM, 8 concentration points in total.
Specific steps of the experiment: In the experiment, there were three control groups, each with 8 replicate wells, which were C1 100% inhibition group (no ATP), C2 0% inhibition group (with ATP), and C3 100% phosphorylation group, respectively. 2.5 μl of serially diluted compound was added to each well of a 384-well plate, with double replicate wells, and 4% DMSO solution was added to wells C1, C2, and C3. After that, except for wells C3, 2.5 μl of BTK enzyme solution was added to each remaining well, which was left to stand at 4° C. for 30 minutes. After that, except for wells C3, 2.5 μl of short peptide solution was added to each well, and 5 μl of phosphorylated short peptide solution was added to each of wells C3. 2.5 μl of 1.33× kinase buffer was added to each of wells C1 and C3, and 2.5 μl of ATP solution was added to each of the remaining wells. The wells were centrifuged transiently, and the plate was shaken at 1000 rpm for 30 seconds to perform transient centrifuge. […]

[2] = Stability test in liver microsomes (mouse); type: in vitro ADME; settings: mouse liver microsomes 0.5 mg/mL, 1 μM compound
Description: (§1) Both male CD-1 mouse pooled liver microsomes and male SD rat pooled liver microsomes were purchased from BioreclamationIVT Corporation, USA.
(§2) The test compound stock solution was diluted with an organic solvent (usually a mixture of acetonitrile, methanol and water with various ratios, depending on the solubility of the compound, if necessary, 1 N hydrochloric acid or 1 N sodium hydroxide would be added to facilitate solubilization) to the 0.1 mM (the final concentration of the compound in the reaction system was 1 μM) and the concentration percentage of the organic solvents in the incubation system no more than 1% (wherein the percentage of DMSO was required to be no more than 0.1%). An appropriate amount of 100 mM NADP, 500 mM G-6-P and 100 Unit/mL G-6-PDH were mixed and diluted with ultrapure water (the final system contains 1 mM NADP, 5 mM G-6-P and 1 Unit/mL G-6-PDH), pre-incubated in a 37° C. water bath for 10 minutes and then placed on ice for use as a NADPH regeneration solution. 20 mg/mL liver microsomes solution and 200 mM phosphate buffer were mixed, and diluted with ultrapure water to give a liver microsomes solution containing 2.5 mg/mL liver microsomes (the final concentration of the reaction system is 0.5 mg/mL) and 50 mM phosphate buffer. The diluted liver microsomes solution was mixed with 0.1 mM compound solution, a mixture of 100 mM EDTA, 300 mM MgCl2 solution, 200 mM phosphate buffer (the final system was 3 mM MgCl2, 1 mM EDTA and 50 mM phosphate buffer) and water in an appropriate volume was added. Finally, the NADPH regeneration solution was added, then the reaction solution was placed in a 37° C. water bath to start the reaction (the reaction time was 30 minutes), and the reaction was stopped by adding the ice-cold acetonitrile reaction stopping solution containing the internal standard. The 0-minute sample was not incubated in a 37° C. water bath, and its difference from the 30-minute sample further lies in that the ice-cold acetonitrile reaction stopping solution containing the internal standard was added first, and then the NADPH regeneration solution was added. The sample added with the reaction stopping internal standard solution was vortexed and mixed well, and then centrifuged at 4400 rpm for 10 minutes. The supernatant was taken and diluted ten times with 50% methanol for LC-MS/MS analysis.
(§3) LC-MS/MS was used to determine the concentration of the compound in the sample. The percentage of the remaining compound after 30 minutes of incubation comparing with that in the 0-minute sample was calculated using the peak area ratio of the compound to the internal standard as an indicator, to evaluate the metabolic stability of the compound.

[3] = Stability test in liver microsomes (rat); type: in vitro ADME; settings: rat liver microsomes 0.5 mg/mL, 1 μM compound
Description: as §1, §2, §3

[4] = system: anti-IgD antibody-induced B cell activation in mice whole blood; experiment: In vivo efficacy of the inhibitory effect on BTK target: anti-IgD antibody-induced B cell activation in mice whole blood after oral dosing; parameters: species or system mouse; settings: 20 mg/kg oral single dose, 16 h
Description: Objects: B cells in mice whole blood were induced and activated by the anti-IgD antibody, and the inhibitory effect of the compound of the present invention on B cell activation in vivo was studied, so as to determine the inhibitory effect of the compound of the present invention on the BTK target in vivo.
Methods: C57BL/6 mice (female, 18-20 g, purchased from Shanghai Lingchang Biotechnology Co., Ltd.) were grouped according to Table 1.
The animals of each group were administered, then were placed in CO2 for anesthesia at designated time points, blood samples were taken from […] via retro-orbital bleeding, and heparin was used for anticoagulation; 90 μL of whole blood was taken from mice of each group, and added to a 96 well culture plate, and anti-mouse IgD antibody (BIO-RAD, Cat #MCA4693) was added to each well to a final concentration of […] (respectively for each drug-treated group and anti-IgD antibody-inducted vehicle group); in addition, 90 μL of whole blood of mice in the vehicle group was taken and added to the 96-well culture plate, and PBS (phosphate buffer, GIBCO, Cat #C20012500BT) was added to each well to a final concentration of 0.01 μg/L (namely, the vehicle control group); Each group was mixed well and incubated in a 37° C./5% CO2 incubator for 4 hours. In addition, the blood of mice in the drug-treated group was centrifuged to separate plasma for blood concentration analysis.
B cell activation ratio=percentage of CD69^+CD19^+ double positive B cells/percentage of CD19^+ single positive B cells
Inhibition ratio=(percentage of B cell activation ratio in anti-IgD antibody-induced vehicle group−percentage of B cell activation ratio in drug-treated group)/(percentage of B cell activation ratio in anti-IgD antibody−induced vehicle group-percentage of B cell activation ratio in vehicle control group)×100%
All data are represented by mean±standard error. For the comparison between each drug-treated group and the anti-IgD antibody-induced vehicle group, p value was calculated by Graphpad Prism using one-way ANOVA analysis of variance and Dunnett's test, and for the comparison between each drug-treated group, p value was calculated by using unpaired t test.

[5] = system: rat arthritis model induced by type II collagen; experiment: Rat arthritis model induced by type II collagen (CIA), paw volume; type: in vivo; settings: for inhibition ratio of area under the curve (IRAUC) of paw swelling: Day 13 to Day 19
Description: An appropriate amount of bovine type II collagen (CII, Chondrex (Redmond, WA, USA), Cat #20021) was weighed and dissolved in 0.1 mole of acetic acid (SPGC Sinopharm Chemical Reagent Co., Ltd (Shanghai, P.R. China), Cat #: 10000218.), which was formulated into a solution with a concentration of 6 mg/mL, stirred at 4° C. overnight, and added with an equal volume of Freund's incomplete adjuvant (Sigma-Aldrich. (St. Louis, MO, USA), Cat #: SLBW0366.), fully emulsified to prepare an emulsion with a CII concentration of 3 mg/mL.
Female Lewis rats were purchased from Beijing Vital River Laboratory Animal Technology Co., Ltd. (certificate number 20200928Aazz0619000579, initial body weight of 110-130 grams), and 6 rats were randomly selected as a normal group; and all of the remaining rats were immunized. In the first immunization on day 0, the rats except those in the normal group were anesthetized with isoflurane (Hebei Yipin Pharmaceutical Co., Ltd., Lot: C002170601.), and then disinfected with 75% alcohol, and 0.2 mL of emulsion was injected intradermally at the base of the tail thereof. A second challenge was carried out on day 7, and 0.2 mL of emulsion was intradermally injected using the same method. Once the animals developed symptoms on day 10, the incidence conditions thereof were closely monitored.
After grouping, the normal group was not administered, and the rats in the other groups were administered with the control vehicle, 0.25 mg/kg and 4 mg/kg of the reference GDC-0853, and each dose of compound 1 orally once a day until the end of the experiment.
The paw volume was measured on day 10 after immunization, and the left and right hind paw volumes (V) were measured every day after the paw volume increase was detected.
The arthrosis paw volumes of the left and right hind limbs of each animal were measured, and the average paw volume (APV) was calculated according to the following formula:
Average paw volume APV=(Vleft+Vright)/2
The average arthrosis paw volume of each animal before administration was used as the baseline (or considered […] of inflammation). The averaged paw swelling (APS) of each animal is calculated according to the following formula, wherein, APVd1 is the average paw volume of the animal administered on day 1, and APVdt is the average paw volume of the animal administered on day t:
The averaged paw swelling APSdt=(APVdt−APVd1)
The area under the curve (AUC) of the average paw volume swelling is the area under the curve of the arthrosis score swelling calculated by the trapezoid method, and the calculation formula is:
AUCAPS=½×(APSd1+APSd2)×(d2−d1)+½×(APSd2+APSd3)×(d3−d2)+ . . . +½×(APSdn+APSd(n-1))×(dn−dn-1).
Inhibition ratio IRAUC%=(Mean AUCAPS in the model group−AUCAPS in the drug-treated group)/(Mean AUCAPS in the model group−Mean AUCAPS in the normal group)×100%.

Chain of BTK recombinant protein (Q06187 whole entry): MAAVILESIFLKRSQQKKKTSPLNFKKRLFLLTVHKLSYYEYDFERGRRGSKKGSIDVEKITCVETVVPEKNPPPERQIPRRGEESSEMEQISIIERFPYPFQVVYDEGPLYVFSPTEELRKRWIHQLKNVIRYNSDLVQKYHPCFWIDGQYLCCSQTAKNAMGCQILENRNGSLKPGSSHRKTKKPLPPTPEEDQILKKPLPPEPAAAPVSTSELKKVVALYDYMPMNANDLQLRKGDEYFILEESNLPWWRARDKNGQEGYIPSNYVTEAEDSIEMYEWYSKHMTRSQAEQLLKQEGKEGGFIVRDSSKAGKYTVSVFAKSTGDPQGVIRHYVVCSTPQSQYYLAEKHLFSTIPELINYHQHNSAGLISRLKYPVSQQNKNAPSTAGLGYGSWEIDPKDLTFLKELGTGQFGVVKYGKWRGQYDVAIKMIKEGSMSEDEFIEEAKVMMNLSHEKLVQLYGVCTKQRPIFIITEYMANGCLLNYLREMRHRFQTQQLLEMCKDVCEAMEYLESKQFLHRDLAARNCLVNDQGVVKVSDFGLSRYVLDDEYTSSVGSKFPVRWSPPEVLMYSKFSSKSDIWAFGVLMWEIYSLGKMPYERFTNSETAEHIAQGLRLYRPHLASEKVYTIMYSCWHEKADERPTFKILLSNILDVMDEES

SMILES	IC50 [1]	MLM, percentage of the remaining compound after 30 minutes of incubation [2]	RLM, percentage of the remaining compound after 30 minutes of incubation [3]	Inhibition ratio (%) on B cell activation [4]	B cell activation ratio (the population of activated B cells in total B cells) ([4]; mean ± standard error)	effect on paw volume compared with vehicle control group ([5]; 0.25 mg/kg oral QD)	inhibition ratio of area under the curve (IRAUC) of paw swelling ([5]; 0.25 mg/kg oral QD)	effect on paw volume compared with vehicle control group ([5]; 4 mg/kg oral QD)	inhibition ratio of area under the curve (IRAUC) of paw swelling ([5]; 4 mg/kg oral QD)
C[C@H]1CN(C2COC2)C[C@H](C)N1c1ccc(Nc2cc(-c3ccnc(-n4ncn5c6c(cc5c4=O)CC(C)(C)C6)c3CO)cn(C)c2=O)nc1 [Compound 4, 2-(5-((5-((2S,6S)-2,6-dimethyl-4-(oxetan-3-yl)piperazin-1-yl)pyridin-2-yl)amino)-3′-(hydroxymethyl)-1-methyl-6-oxo-1,6-dihydro-[3,4′-bipyridin]-2′-yl)-7,7-dimethyl-7,8-dihydro-2H-cyclopenta[4,5]pyrrolo[1,2-d][1,2,4]triazin-1(6H)-one]	5 nM	90.9%	97.4%						
C[C@H]1CNC[C@H](C)N1c1ccc(Nc2cc(-c3ccnc(-n4ccn5c6c(cc5c4=O)CC(C)(C)C6)c3CO)cn(C)c2=O)nc1 [Compound 5, 2-(5-((5-((2S,6S)-2,6-dimethylpiperazin-1-yl)pyridin-2-yl)amino)-3′-(hydroxymethyl)-1-methyl-6-oxo-1,6-dihydro-[3,4′-bipyridin]-2′-yl)-7,7-dimethyl-7,8-dihydro-2H-cyclopenta[4,5]pyrrolo[1,2-a]pyrazin-1(6H)-one]	8 nM	67.5%	95.4%						
C[C@H]1CN(C2COC2)CCN1c1ccc(Nc2cc(-c3ccnc(N4CCn5c(cc6c5CC(C)(C)C6)C4=O)c3CO)cn(C)c2=O)nc1 [GDC-0853, fenebrutinib, reference compound]		76.3%	81.0%	9%	29.3 ± 6.7	no improvement effect	−6.4%	significantly reduced	144.7%
